Data published in patent US20080108655A1, “Drug composition and method for treating malaria and malignancy” (priority 2005, published 2008).

Key:
[1] = human, in vivo; cited from earlier work
[2] = tested on: drug-resistant P. falciparum; assay: in vitro chemosensitization/resistance-reversal (C/RR) potency, strain not stated; type: cell-based
Description: (§1) All in vitro studies were 72 hour growth inhibition assays, starting with 0.2% parasitemia, 2% hematocrit under standard culture conditions in 96 well microplates. Growth was quantified using the fluorescence-based assay developed in our lab (Smilkstein et al; Antimicrobial Agents and Chemotherapy 2004;48:1803-1806). EC50 determined by non-linear regression curve fitting (sigmoidal dose-response, variable slope equation) using GraphPad Prism software. Isobolograms and EC50,75 and 90 estimates computed using CalcuSyn software (Biosoft, T. C. Chou).

[3] = human, in vivo; cited from earlier work; remark: listed apart in the source
[4] = tested on: P. falciparum Dd2 (multidrug resistant)
Description: as §1
(§2) 2. […] In the following figures, fixed-ratio combinations of 2 drugs are made at the concentrations of each described in the figure legend (Fivelman, Adagu and Warhurst. Antimicrobial Agents and Chemotherapy 2004;48:4097-4102). Then, in quadruplicate, each of these combinations is diluted serially 2-fold, yielding one curve for each starting mixture. The data are expressed using the concentration of the antimalarial of interest on the X axis. […] In each starting combination, an increase of one drug is accompanied by a corresponding decrease in the other. As a result, overlapping curves indicate an additive relationship; a shift to the left, synergy; and a shift to the right, antagonism. • b. One representative isobologram from each of the experiments is included to the right of the figure, showing lines predictive of EC50,75 and 90 if the combinations were additive in effect. Points falling to the lower left of the predictive lines indicate synergy; those on or near the line, additive effects.

[5] = tested on: P. falciparum W2 (chloroquine-resistant); assay: 72 hour growth inhibition assay, fluorescence-based, strain W2; type: cell-based; settings: fixed-ratio combinations, isobologram
Description: as §1
as §2, with “One representative isobologram from each of the experiments is included to the right of the figure, showing lines predictive of EC50,75 and 90 if the combinations were additive in effect. Points falling to the lower left of the predictive lines indicate synergy; those on or near the line, additive effects.” left out

CQ-resistant P. chabaudi = settings: mice, drug alone
[6] = tested on: P. falciparum D6 (CQ sensitive, mefloquine resistant); assay: 72 hour growth inhibition assay, fluorescence-based, strain D6; type: cell-based
Description: as §1
as §2, with “One representative isobologram from each of the experiments is included to the right of the figure, showing lines predictive of EC50,75 and 90 if the combinations were additive in effect. Points falling to the lower left of the predictive lines indicate synergy; those on or near the line, additive effects.” left out

[7] = tested on: drug-resistant P. falciparum; settings: imipramine vs desipramine; amitriptyline vs nortriptyline; cited from earlier work

CN(C)CCC(c1ccc(Cl)cc1)c1ccccn1 (racemic) [chlorpheniramine]
typical serum concentrations in clinical use [1]: < 100 nM | C/RR potency of the (+/−) and (+) forms compared ([2]; in vitro): equipotent | sedation as side effect [3]: consistently causes drowsiness

Cc1ccccc1C(OCCN(C)C)c1ccccc1 (racemic) [orphenadrine]
interaction with mefloquine ([4]; Dd2, resistant to mefloquine): synergistic | interaction with quinine ([4]; Dd2, resistant to quinine): synergistic | interaction with CQ ([4]; Dd2, fixed-ratio combinations, isobologram): synergistic | interaction with CQ [5]: synergistic | effect on sensitivity to quinine or mefloquine ([2]; strains resistant to those drugs): increases sensitivity to quinine or mefloquine | parasitemia at completion of 4 treatment days (CQ-resistant P. chabaudi): decreased parasitemia | interaction with mefloquine ([6]; D6, resistant to mefloquine): synergistic | interaction with CQ ([6]; D6, fixed-ratio combinations, isobologram): not against CQ sensitive D6 | sedation as side effect [3]: does not typically cause sedation

CN(C)CCC(c1ccc(Cl)cc1)c1ccccn1 (single isomer, unassigned; (-)) [(−)CP]
C/RR activity ([2]; in vitro): active

CN(C)CCC(c1ccc(Br)cc1)c1ccccn1 (stereo not drawn) [BP, brompheniramine]
C/RR potency of the (+/−) and (+) forms compared ([2]; in vitro): equipotent

CN(C)CCC=C1c2ccccc2CCc2ccccc21 [amitriptyline]
resistance-reversal potency, dimethylamine vs monomethylamine pair [7]: no substantial difference

CNCCCN1c2ccccc2CCc2ccccc21 [desipramine]
resistance-reversal potency, dimethylamine vs monomethylamine pair [7]: no substantial difference | typical serum concentrations in clinical use [1]: 100 to 500 nM

CN(C)CCCN1c2ccccc2CCc2ccccc21 [imipramine]
resistance-reversal potency, dimethylamine vs monomethylamine pair [7]: no substantial difference

CNCCC=C1c2ccccc2CCc2ccccc21 [nortriptyline]
resistance-reversal potency, dimethylamine vs monomethylamine pair [7]: no substantial difference

CN(C)CCC(c1ccccc1)c1ccccn1 (stereo not drawn) [pheniramine]
concentrations achieved in clinical use relative to BP or CP [1]: roughly 20 fold | sedation as side effect [3]: shares sedation as a side effect
